Assay results: US9353091B2 (priority 2009, dated 2016)

How the values were obtained:
[1] = system: genotype 1b-Con1 subgenomic replicon cell line; assay: HCV Polymerase Replicon Assay (genotype 1b-Con1, luciferase reporter); type: cell-based; details: Hepatitis C virus, 72 h, 1b-Con1 replicon, three days
[2] = biological target: T1, HCV polymerase 1A (Δ21 NS5B) (Hepatitis C virus genotype 1a, UniProt P27958); assay: HCV Polymerase Inhibition Assay (1a); type: biochemical
T1 construct: 20 to 50 nM Δ21 NS5B
T1 sequence (P27958 2421-2990, stated change not applied): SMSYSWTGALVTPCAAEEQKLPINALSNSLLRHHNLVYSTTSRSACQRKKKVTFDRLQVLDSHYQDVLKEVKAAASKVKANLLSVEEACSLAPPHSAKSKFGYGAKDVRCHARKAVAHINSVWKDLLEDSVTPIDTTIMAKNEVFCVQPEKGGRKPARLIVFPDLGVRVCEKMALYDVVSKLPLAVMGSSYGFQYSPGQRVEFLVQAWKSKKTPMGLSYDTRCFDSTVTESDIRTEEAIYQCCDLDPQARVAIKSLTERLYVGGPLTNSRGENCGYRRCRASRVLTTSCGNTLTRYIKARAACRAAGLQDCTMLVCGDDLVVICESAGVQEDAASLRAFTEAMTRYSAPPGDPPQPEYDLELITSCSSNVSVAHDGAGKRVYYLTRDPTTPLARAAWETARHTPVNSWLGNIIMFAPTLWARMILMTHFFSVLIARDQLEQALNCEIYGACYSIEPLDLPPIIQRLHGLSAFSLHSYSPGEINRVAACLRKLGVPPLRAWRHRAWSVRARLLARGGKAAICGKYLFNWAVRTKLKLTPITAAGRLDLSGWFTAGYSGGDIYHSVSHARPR
Description: (§1) Reaction volume was 50 μL. The reaction was terminated by the addition of 1 volume of 4 mM spermine in 10 mM Tris-Cl pH 8.0, 1 mM EDTA. After incubation for at least 15 minutes at room temperature, the precipitated RNA was captured by filtering through a GF/B filter (Millipore) in a 96 well format. The filter plate was washed three times with 200 μL, each of 2 mM spermine, 10 mM Tris-Cl pH 8.0, 1 mM EDTA, and 2 times with ethanol. After air-drying, 30 μL, of Microscint 20 scintillation cocktail (Packard) was added to each well, and the retained cpm were determined by scintillation counting. […] Retained cpm were plotted vs. inhibitor concentration and fit to equation 1 using non-linear regression (ref. 1) to obtain the IC50 values: Retained cpm=A[sqrt{(IC50+It−Et)^2+4*IC50*Et}−(IC50+It−Et)]
(§2) Ref. Morrison, J. F. and S. R. Stone. 1985. Approaches to the study and analysis of the inhibition of enzymes by slow- and tight-binding inhibitors. Comments Mol. Cell. Biophys. 2: 347-368.
(§3) The sequence of the template RNA used was: 5′-[…] […] […] […] […] […] […] […] […] […] […] […] […] […] […] […] […]-3′ (SEQ ID NO: 1)

[3] = biological target: T2, HCV polymerase 1B (Δ21 NS5B) (Hepatitis C virus genotype 1b, UniProt P26663); assay: HCV Polymerase Inhibition Assay (1b); type: biochemical
T2 construct: 20 to 50 nM Δ21 NS5B
T2 sequence (P26663 2420-2989, stated change not applied): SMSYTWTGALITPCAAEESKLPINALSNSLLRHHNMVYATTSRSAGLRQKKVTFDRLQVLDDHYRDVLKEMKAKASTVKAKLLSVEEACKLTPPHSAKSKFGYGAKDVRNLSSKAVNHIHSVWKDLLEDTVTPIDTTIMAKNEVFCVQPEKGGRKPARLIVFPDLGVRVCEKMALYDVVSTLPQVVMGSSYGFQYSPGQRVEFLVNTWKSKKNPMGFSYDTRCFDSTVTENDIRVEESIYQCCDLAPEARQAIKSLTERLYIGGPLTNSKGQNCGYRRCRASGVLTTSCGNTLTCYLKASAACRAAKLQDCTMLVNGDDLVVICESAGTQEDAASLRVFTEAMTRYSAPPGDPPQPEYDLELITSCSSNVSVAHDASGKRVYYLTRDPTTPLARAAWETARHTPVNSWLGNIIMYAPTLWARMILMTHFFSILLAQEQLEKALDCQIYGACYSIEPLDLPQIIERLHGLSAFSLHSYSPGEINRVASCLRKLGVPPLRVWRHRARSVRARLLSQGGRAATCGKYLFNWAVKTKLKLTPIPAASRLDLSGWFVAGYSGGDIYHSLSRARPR
Description: as §1, §2, §3

[4] = system: genotype 1a-H77 subgenomic replicon cell line; assay: HCV Polymerase Replicon Assay (genotype 1a-H77, luciferase reporter); type: cell-based; details: Hepatitis C virus, 72 h, 1a-H77 replicon, three days

Row | SMILES | EC50 [1] | IC50 [2] | IC50 [3] | EC50 [4]
1 | CCc1c(-c2ccc3cc(NS(C)(=O)=O)ccc3c2)cc(-c2c[nH]c(=O)[nH]c2=O)cc1C(C)(C)C [compound 36, N-(6-(3-tert-butyl-5-(2,4-dioxo-1,2,3,4-tetrahydropyrimidin-5-yl)-2-ethylphenyl)naphthalen-2-yl)methanesulfonamide] | 0.1 to 1 µM | 0.01 to 0.1 µM | 0.01 to 0.1 µM | 0.1 to 1 µM
2 | COc1c(-c2ccc3cc(NS(C)(=O)=O)ccc3c2)cc(-c2cn(C)c(=O)n(C)c2=O)cc1C(C)(C)C [compound 8, N-(6-(3-tert-butyl-5-(1,3-dimethyl-2,4-dioxo-1,2,3,4-tetrahydropyrimidin-5-yl)-2-methoxyphenyl)naphthalen-2-yl)methanesulfonamide] | 0.01 to 0.1 µM | 0.1 to 1 µM | 0.1 to 1 µM | 0.1 to 1 µM
3 | COc1c(-c2ccc3cc(NS(C)(=O)=O)ccc3c2)cc(NC(N)=O)cc1C(C)(C)C [compound 14, N-(6-(3-tert-butyl-2-methoxy-5-ureidophenyl)naphthalen-2-yl)methanesulfonamide] | 0.01 to 0.1 µM | < 0.01 µM | 0.01 to 0.1 µM | 0.1 to 1 µM
4 | COc1c(-c2ccc3cc(NS(C)(=O)=O)ccc3c2)cc(-c2c[nH]c(=O)[nH]c2=O)cc1-c1ccc(C)o1 [compound 42, N-(6-(5-(2,4-dioxo-1,2,3,4-tetrahydropyrimidin-5-yl)-2-methoxy-3-(5-methylfuran-2-yl)phenyl)naphthalen-2-yl)methanesulfonamide] | ≤ 0.01 µM | < 0.01 µM | 0.01 to 0.1 µM | 0.01 to 0.1 µM
5 | COc1c(Br)cc(-c2c[nH]c(=O)[nH]c2=O)cc1C(F)(F)F [compound 48, 5-(3-bromo-4-methoxy-5-(trifluoromethyl)phenyl)pyrimidine-2,4(1H,3H)-dione] | > 1 µM | > 1 µM | > 1 µM | > 1 µM
6 | COc1c(-c2ccc3cc(NS(C)(=O)=O)ccc3c2)cc(-c2c[nH]c(=O)[nH]c2=O)cc1C(F)(F)F [compound 49, N-(6-(5-(2,4-dioxo-1,2,3,4-tetrahydropyrimidin-5-yl)-2-methoxy-3-(trifluoromethyl)phenyl)naphthalen-2-yl)methanesulfonamide] | ≤ 0.01 µM | < 0.01 µM | 0.01 to 0.1 µM | 0.01 to 0.1 µM
7 | COc1c(-c2ccc3c(c2)CCC3=O)cc(-c2c[nH]c(=O)[nH]c2=O)cc1C(C)(C)C [compound 12, 5-(3-tert-butyl-4-methoxy-5-(1-oxo-2,3-dihydro-1H-inden-5-yl)phenyl)pyrimidine-2,4(1H,3H)-dione] | 0.1 to 1 µM | 0.01 to 0.1 µM | 0.01 to 0.1 µM | 0.1 to 1 µM
8 | COc1c(-c2ccc3cc(NS(C)(=O)=O)ccc3c2)cc(N2CCCS2(=O)=O)cc1C(C)(C)C [compound 46, N-(6-(3-tert-butyl-5-(2-(1,1-dioxidoisothiazolidin-2-yl))-2-methoxyphenyl)naphthalene-2-yl)methanesulfonamide] | 0.01 to 0.1 µM | 0.01 to 0.1 µM | 0.01 to 0.1 µM | 0.1 to 1 µM
9 | COc1c(-c2ccc3c(c2)CC=C3CNS(C)(=O)=O)cc(-c2cn(C)c(=O)[nH]c2=O)cc1C(C)(C)C [compound 6, N-((6-(3-tert-butyl-2-methoxy-5-(1-methyl-2,4-dioxo-1,2,3,4-tetrahydropyrimidin-5-yl)phenyl)-1H-inden-3-yl)methyl)methanesulfonamide] | ≤ 0.01 µM | < 0.01 µM | 0.01 to 0.1 µM | 0.1 to 1 µM
10 | COc1c(-c2ccc3cc(NS(C)(=O)=O)ccc3c2)cc(-c2cn(C)c(=O)[nH]c2=O)cc1C(C)(C)C [compound 7, N-(6-(3-tert-butyl-2-methoxy-5-(1-methyl-2,4-dioxo-1,2,3,4-tetrahydropyrimidin-5-yl)phenyl)naphthalen-2-yl)methanesulfonamide] | ≤ 0.01 µM | < 0.01 µM | 0.01 to 0.1 µM | 0.01 to 0.1 µM
11 | CCNC(=O)Nc1cc(-c2ccc3cc(NS(C)(=O)=O)ccc3c2)c(OC)c(C(C)(C)C)c1 [compound 22, N-(6-(3-tert-butyl-5-(3-ethylureido)-2-methoxyphenyl)naphthalen-2-yl)methanesulfonamide] | 0.1 to 1 µM | 0.1 to 1 µM | 0.1 to 1 µM | 0.1 to 1 µM
12 | COc1c(-c2ccc3cc(NS(C)(=O)=O)ccc3c2)cc(NC(C)=O)cc1C(C)(C)C [compound 47, N-(3-tert-butyl-4-methoxy-5-(6-(methylsulfonamido)naphthalen-2-yl)phenyl)acetamide] | 0.1 to 1 µM | 0.1 to 1 µM | > 1 µM | > 1 µM
13 | COc1c(-c2ccc3cc(NS(C)(=O)=O)ccc3c2)cc(N2CCCC2=O)cc1C(C)(C)C [compound 29, N-(6-(3-tert-butyl-2-methoxy-5-(2-oxopyrrolidin-1-yl)phenyl)naphthalen-2-yl)methanesulfonamide] | 0.01 to 0.1 µM | 0.01 to 0.1 µM | 0.01 to 0.1 µM | 0.1 to 1 µM
14 | CC(C)(C)c1cc(-c2c[nH]c(=O)[nH]c2=O)cc(-c2ccc3cc(NS(C)(=O)=O)ccc3c2)c1N [compound 33, N-(6-(2-amino-3-tert-butyl-5-(2,4-dioxo-1,2,3,4-tetrahydropyrimidin-5-yl)phenyl)naphthalen-2-yl)methanesulfonamide] | 0.01 to 0.1 µM | < 0.01 µM | 0.01 to 0.1 µM | 0.1 to 1 µM
15 | COc1c(-c2ccc3c(c2)CCC3O)cc(-c2c[nH]c(=O)[nH]c2=O)cc1C(C)(C)C (stereo not shown) [compound 13, 5-(3-tert-butyl-5-(1-hydroxy-2,3-dihydro-1H-inden-5-yl)-4-methoxyphenyl)pyrimidine-2,4(1H,3H)-dione] | > 1 µM | 0.1 to 1 µM | 0.1 to 1 µM | > 1 µM
16 | COc1c(-c2ccc3c(c2)CC=C3CNS(C)(=O)=O)cc(-c2cn(S(C)(=O)=O)c(=O)[nH]c2=O)cc1C(F)(F)F [compound 52, N-((6-(2-methoxy-5-(1-(methylsulfonyl)-2,4-dioxo-1,2,3,4-tetrahydropyrimidin-5-yl)-3-(trifluoromethyl)phenyl)-1H-inden-3-yl)methyl)methanesulfonamide] | ≤ 0.01 µM | 0.01 to 0.1 µM | 0.01 to 0.1 µM | 0.1 to 1 µM
17 | COc1c(-c2ccc3cc(NS(C)(=O)=O)ccc3c2)cc(-c2ccc[nH]c2=O)cc1C(C)(C)C [compound 9, N-(6-(3-tert-butyl-2-methoxy-5-(2-oxo-1,2-dihydropyridin-3-yl)phenyl)naphthalen-2-yl)methanesulfonamide] | ≤ 0.01 µM | < 0.01 µM | 0.01 to 0.1 µM | ≤ 0.01 µM
18 | COc1c(-c2ccc3cc(NS(C)(=O)=O)ccc3c2)cc(-c2c[nH]c(=O)[nH]c2=O)cc1C(C)(C)C [compound 28, N-(6-(3-tert-butyl-5-(2,4-dioxo-1,2,3,4-tetrahydropyrimidin-5-yl)-2-methoxyphenyl)naphthalen-2-yl)methanesulfonamide] | ≤ 0.01 µM | < 0.01 µM | 0.01 to 0.1 µM | ≤ 0.01 µM
19 | COc1c(-c2ccc3cc(NS(C)(=O)=O)ccc3c2)cc(-n2ccccc2=O)cc1C(C)(C)C [compound 30, N-(6-(3-tert-butyl-2-methoxy-5-(2-oxopyridin-1(2H)-yl)phenyl)naphthalen-2-yl)methanesulfonamide] | 0.01 to 0.1 µM | 0.01 to 0.1 µM | 0.01 to 0.1 µM | 0.1 to 1 µM
